Tests used:
HeLa-S1a = experiment: cell survival after drug treatment ([methyl-3H]-thymidine); format: cell-based, human
Text: In FIGS. 1-4 and Table 1, reference is made to the cell lines HeLa, HeLa-S1a, JAM, CI-80-13S and MM96.
The origins of the human melanoma cell line MM96 has been described in Whitehead et al., 1973, Pigment Cell 1 383-389. The cell line JAM is described in Ward et al., 1987, Cancer Res. 47 2662-2667. The origin of the ovarian tumour line CI-80-13S has been described in Bertoncello et al., 1985, Aust. J. Exp. Biol. Med. Sci. 63 241-243. The origin of the cervical carcinoma cell line HeLa has been described in Maynard et al., 1986, Cancer Res. 46 5009-5093. The subclone HeLa-S1a was derived by stably transfecting HeLa with PAI-2 cDNA described in Schleuning et al., 1987, Mol. Cell. Biol. 7 4564-4567 in the sense orientation under the control of the cyto-megalovirus (CMV) promoter. The stably infected subclone was isolated following G418 selection and expression of the PAI-2 transgene characterised by immunoblot analysis and quantitated by ELISA. All of these cell lines have been used before for carrying out cell survival assays referred to in FIGS. 1-4. Cells were cultured at 37° in 5% CO2 /air in Roswell Park Memorial Institute medium 1640 containing 5% foetal calf serum, 100 μg/ml streptomycin, 100 IU/ml penicillin, 1 mM pyruvate, 50 μM nicotinamide and 3 mM HEPES.
Cells were seeded in microtitre plates (lowest number for fastest growing cells: 1000 HeLa, 2000 MM96, […] CI-80-13S cells per 6 mm well in 100 μl), normally but not necessarily allowed to attach overnight, then 5 dilutions of the drug were added to duplicate wells. After an overnight incubation to equilibrate the pH, the lids were quickly taped around the edge to prevent evaporation. The plates were incubated for 5-7 days, until the controls were nearly confluent. Cell growth/morphology was scored at each dose visually (inverted microscope). The medium was then replaced by 50 μl fresh medium containing 2 u/Ci/ml [methyl-3H]-thymidine (5 Ci/mmol; Radiochemical Centre, Amersham, Bucks., U.K.) and incubated for 2-4 hr. The cells were washed with PBS (0.1 M NaCl, 50 mM phosphate, pH 7.2), detached with 100 μl of PBS containing 0.2 mg/ml trypsin and 10 mM EDTA, and washed onto a glass fibre GF/a filter mat with water using a cell harvester. Later, wells were checked under the microscope to ensure complete detachment and washout. Radioactivity was determined in an LKB Beta Plate counter and the results plotted as log % control cpm versus dose. The ID50 (dose required to give 50% survival) was interpolated from this survival curve.

PC9 = experiment: activity against cisplatin sensitive lung tumour PC9; format: cell-based, human; conditions: very preliminary data
Text: In Table 1, JAM and CI-80-13S are ovarian tumours, HeLa is a cervical tumour and MM96 is a melanoma In Table 2, all the tumours are ovarian tumours. […] In this regard, PC9 is a lung tumour and its derivation is discussed in Hong et al., 1993, Cancer Research 53 3302-3307 and Bungo et al., 1990, Cancer Research 50 2549-2553.

41M-cisR = experiment: cytotoxicity assay, sulforhodamine B; format: cell-based, human; conditions: 96 hrs, mean ± SD or individual values when n<3
Protocol: (§1) In Table 2, reference is made to cell lines 41M, 41M-cisR, SKOV-3, CH1 and CH1-cisR.
(§2) J. Cancer 69 1-7. The characteristics of the cell line pairs CH1/CH1 cisR, 41M/41McisR and 41M/SKOV3 are described in Table 3.
(§3) The cytotoxicity assay used sulforhodamine B which stains the basic amino acids. Cells (5000 or 2500 for SKOV-3) were seeded into 96 well microtitre plates (Linbro, Flow Laboratories Inc., USA) in 0.1 ml of medium. After an overnight incubation, the metal phosphine compounds were dissolved in 0.9% NaCl or ethanol and diluted with medium, were added at concentrations ranging from 0.005 to 50 μM to quadruplicate wells. After 96 hrs incubation, the medium was removed and cells were fixed in 0.2 ml of cold 10% (w/v) trichloroacetic acid (May & Baker Ltd., Dagenham, England) for 30 mins at 4° C. The plates were washed five times with tap water. Then 0.1 ml of 0.4% (w/v) sulforhodamine B (Sigma Chemical Co., St. Louis, USA) dissolved in 1% acetic acid (Ajax Chemicals, Australia) was added to the wells and left to stand at room temperature for 15 mins. The plates were then washed five times with 1% acetic acid and left to dry overnight. The next morning, 0.1 ml of 10 mM Tris buffer (Sigma Chemical Co., St. Louis, USA) was then added to each plate to solubilise the dye. Absorbance was read at a wavelength of 570 nm using a 96 well plate reader Dynatech MR 5000 plate reader. Absorbance of treatment cells was expressed as a percentage of positive (drug-free) controls. The results were plotted as percentage growth versus drug concentration.

41M = experiment: cytotoxicity assay, sulforhodamine B; format: cell-based, human; conditions: 96 hrs, mean ± SD or individual values when n<3
Protocol: as §1, §2, §3

SKOV-3 = experiment: cytotoxicity assay, sulforhodamine B; format: cell-based, human; conditions: 96 hrs, mean ± SD or individual values when n<3
Protocol: as §1, §2, §3

CH1 = experiment: cytotoxicity assay, sulforhodamine B; format: cell-based, human; conditions: 96 hrs, mean ± SD or individual values when n<3
Protocol: as §1, §2, §3

CH1-cisR = experiment: cytotoxicity assay, sulforhodamine B; format: cell-based, human; conditions: 96 hrs, mean ± SD or individual values when n<3
Protocol: as §1, §2, §3

tumour models in mice = conditions: reference EP0198696; cited from earlier work

[Cl-].c1cc([P+]2(c3ccncc3)CC[P+](c3ccncc3)(c3ccncc3)[Au-3]23[P+](c2ccncc2)(c2ccncc2)CC[P+]3(c2ccncc2)c2ccncc2)ccn1 [[Au(d4pype)2]Cl]
cytotoxicity (FIGS. 1 and 2) (HeLa-S1a; HeLa-S1a in vitro): selectively cytotoxic
IC50 (HeLa-S1a; HeLa-S1a, mean ± SD or individual values when n<3, 5-7 days): 300 nM
IC50 (PC9; PC9 lung tumour): 25000 nM
activity against PC9 (PC9; cisplatin sensitive lung tumour): modest activity
IC50 (41M-cisR): > 100000 nM
IC50 (41M): > 100000 nM
IC50 (SKOV-3): > 100000 nM
IC50 (CH1): 400 ± 100 nM
IC50 (CH1-cisR): 600 ± 200 nM
anti-tumour activity (EP0198696) (tumour models in mice): insignificant anti-tumour activity

From patent publication US6218378A, “Anti-tumor agents comprising pyridyl-substituted metal-diphosphine complex” (priority 1994, dated 2001)
